Measurements taken from patent US20030170309A1, “Pharmaceutical compositions containing polymer and drug assemblies” (priority 2001, published 2003).
Converted amounts (≈) assume the structure as drawn.

What was measured:
[1] = Solubility of the drug alone (crystalline or amorphous); conditions: for solubility: thermodynamic from solid
[2] = format: physicochemical
Method: To determine the composition of the polymer/drug assemblies, solutions formed from the dispersions of Example 30 and Example 31 in PBS were analyzed using HPLC and NMR, as described in Example 4. […] To measure the free drug concentration using NMR, 2 wt % NaTC/POPC was added to the solution. By measuring the amount of drug that partitioned into NaTC/POPC micelles, the concentration of free drug in PBS was calculated using the equation: […]
where DM is the concentration of drug in micelles (measured by NMR), Kp is the partition coefficient for drug partitioning between water and micelles (30,000), Df is the free drug concentration in PBS, and VM is the volume ratio occupied by micelles in the PBS solution (cm^3 micelles/cm^3 solution=0.021). […] The amount of polymer contained in the polymer/drug assemblies was calculated by subtracting the free polymer and the polymer in the precipitate from the total polymer added to solution (contained in the solid dispersions). […]
The dispersions of Examples 30 and 31 were added to PBS with varying amounts of NaTC/POPC, and the concentration of drug in NaTC/POPC micelles was measured by NMR spectroscopy. […]
The free drug concentration with no micelles present was calculated as follows. […]
Aqueous solutions formed from the solid dispersion of Example 40 were analyzed using DLS and NMR, as described in Examples 3 and 4. […]

[3] = Dissolution test of amorphous Drug 1 in PBS with varying HPMCAS-MF concentration; format: physicochemical; conditions: amorphous Drug 1 10 mg/mL added, PBS 37°C
Method: First, HPMCAS-MF was dissolved in PBS with stirring at 37° C. and 1.5 mL of this solution was placed in a microcentrifuge tube.

[4] = dispersion of YM022 in HPMC and polyoxyethylene hydrogenated castor oil administered to aqueous solution; cited from earlier work
[5] = rats, colloidal solution; cited from earlier work
[6] = HPMCAS-MF 0 mg/mL (amorphous drug alone)

CCOC(=O)N1c2ccc(C(F)(F)F)cc2C(N(Cc2cc(C(F)(F)F)cc(C(F)(F)F)c2)C(=O)OC)CC1CC (stereo not drawn) [Drug 2, 4-[(3,5-bis-trifluoromethyl-benzyl)-methoxycarbonyl-amino]-2-ethyl-6-trifluoromethyl-3,4-dihydro-2H-quinoline-1-carboxylic acid ethyl ester]
solubility ([1]; PBS with 2% NaTC/POPC, fassgf or other biorelevant, Solubility of crystalline Drug 2 in 2% NaTC/POPC in PBS, 2% NaTC/POPC in PBS): 6 µg/mL (≈ 9.99 µM) | solubility ([1]; PBS, Solubility of the crystalline Drug 2): 0.01 µg/mL (≈ 0.0167 µM) | solubility ([1]; aqueous solution without micelles, Solubility of Drug 2 in aqueous solution without micelles, crystalline Drug 2, separate experiments): ~0.01 µg/mL (≈ 0.0167 µM) | Solubility of Drug 2 in aqueous solution without micelles ([1]; crystalline Drug 2, separate experiments): approximately 0.010 μg/mL | Kp, partition coefficient for drug partitioning between water and micelles [2]: 30,000 | Drug 2 Concentration, NaTC/POPC Conc. 0 wt % ([2]; crystalline Drug 2, value obtained in a separate experiment): 0.01 µg/mL

O=C(N[C@@H](Cc1ccccc1)[C@@H](O)C(=O)N1C[C@@H](O)[C@@H](O)C1)c1cc2cc(Cl)ccc2[nH]1 [Drug 1, 5-chloro-1H-indole-2-carboxylic acid [(1S)-benzyl-3-((3R, 4S)-dihydroxypyrroldin-1-yl-)-(2R)-hydroxy-3-oxypropyl] amide]
HPLC Total Dissolved Drug 1 at 90 min. [3, 6]: 224 µg/mL | HPLC Total Dissolved Drug 1 at 1200 min. [3, 6]: 196 µg/mL | HPLC Total Dissolved Drug 1 at 90 min. ([3]; HPMCAS-MF 0.5 mg/mL): 447 µg/mL | HPLC Total Dissolved Drug 1 at 1200 min. ([3]; HPMCAS-MF 0.5 mg/mL): 289 µg/mL | HPLC Total Dissolved Drug 1 at 90 min. ([3]; HPMCAS-MF 1 mg/mL): 487 µg/mL | HPLC Total Dissolved Drug 1 at 1200 min. ([3]; HPMCAS-MF 1 mg/mL): 203 µg/mL | HPLC Total Dissolved Drug 1 at 90 min. ([3]; HPMCAS-MF 5 mg/mL): 4928 µg/mL | HPLC Total Dissolved Drug 1 at 1200 min. ([3]; HPMCAS-MF 5 mg/mL): 1550 µg/mL | HPLC Total Dissolved Drug 1 at 90 min. ([3]; HPMCAS-MF 10 mg/mL): 7453 µg/mL | HPLC Total Dissolved Drug 1 at 1200 min. ([3]; HPMCAS-MF 10 mg/mL): 5431 µg/mL | HPLC Total Dissolved Drug 1 at 90 min. ([3]; HPMCAS-MF 20 mg/mL): 8099 µg/mL | HPLC Total Dissolved Drug 1 at 1200 min. ([3]; HPMCAS-MF 20 mg/mL): 7451 µg/mL

Cc1cccc(NC(=O)N[C@@H]2N=C(c3ccccc3)c3ccccc3N(CC(=O)c3ccccc3C)C2=O)c1 [YM022]
Mean diameter of colloidal particles [4]: 160 nm | Absorption on oral administration [5]: good absorption

Cc1ncccc1CNC(=O)c1ccc2c(c1)CC[C@@H]1C[C@@](O)(CCC(F)(F)F)CC[C@@]21Cc1ccccc1 [Drug 3, 2-phenanthrenecarboxamide, 4b,5,6,7,8,8a,9,10-octahydro-7-hydroxy-N-[(2-methyl-3-pyridinyl)methyl]-4b-(phenylmethyl)-7-(3,3,3-trifluoropropyl)-, (4bS,7S,8aR)-]
solubility ([1]; Solubility of Drug 3, crystalline Drug 3): 0.004 µg/mL (≈ 0.00745 µM)
